Patent US8163758B2 (Parion Sciences, Inc., priority 2006, dated 2012)

How the values were obtained:
beta-adrenergic receptor = target: T1, beta-adrenergic receptor (Canis lupus familiaris, UniProt P54833); assay: Beta agonist activity, anion secretion short circuit current in airway epithelial monolayers in Ussing chambers; format: cell-based, canine
T1 construct: endogenous in cells; host or cells: primary canine bronchial epithelial cells cultured at air-liquid interface
Protocol: To assess beta agonist activity the compounds of the present invention involves the determination of lumenal drug addition to promote airway epithelial anion currents measured under short circuit current (ISC) using airway epithelial monolayers mounted in Ussing chambers. Cells obtained from freshly excised human, dog, or sheep airways are seeded onto porous 0.4 micron Transwell® Permeable Supports (Corning), cultured at air-liquid interface (ALI) conditions in hormonally defined media, and assayed for anion secretion (ISC) while bathed in Krebs Bicarbonate Ringer (KBR) in Ussing chambers. All test drug additions are to the lumenal bath with approximately half-log dose additions (from 8×10^−10 M to 6.5×10^−5 M), and the cumulative change in ISC (excitation) recorded. All drugs are prepared in dimethyl sulfoxide as stock solutions at a concentration from 1×10^−1 to 1×10^−2 M and stored at −20° C. […] Before the start of the concentration-effect relationship 552-02 a potent sodium channel blocker was applied to the apical surface (1 μM) to eliminate changes in Isc caused by sodium absorption. All data from the voltage clamps are collected via a computer interface and analyzed off-line.
Concentration-effect relationships for all compounds are considered and analyzed Using GraphPad Prism version 3.00 for Windows, GraphPad Software, San Diego Calif. USA.

[1] = target: T2, epithelial sodium channel (ENaC) (Canis lupus familiaris, UniProt A0A8I3MKE6+A0A8I3Q679+Q95165); assay: ENaC blocking activity, short circuit current in airway epithelial monolayers in Ussing chambers; format: cell-based; conditions: canine bronchial epithelia
T2 construct: endogenous in cells; host or cells: primary canine bronchial epithelial cells cultured at air-liquid interface
T2 sequence (A0A8I3Q679 1-649): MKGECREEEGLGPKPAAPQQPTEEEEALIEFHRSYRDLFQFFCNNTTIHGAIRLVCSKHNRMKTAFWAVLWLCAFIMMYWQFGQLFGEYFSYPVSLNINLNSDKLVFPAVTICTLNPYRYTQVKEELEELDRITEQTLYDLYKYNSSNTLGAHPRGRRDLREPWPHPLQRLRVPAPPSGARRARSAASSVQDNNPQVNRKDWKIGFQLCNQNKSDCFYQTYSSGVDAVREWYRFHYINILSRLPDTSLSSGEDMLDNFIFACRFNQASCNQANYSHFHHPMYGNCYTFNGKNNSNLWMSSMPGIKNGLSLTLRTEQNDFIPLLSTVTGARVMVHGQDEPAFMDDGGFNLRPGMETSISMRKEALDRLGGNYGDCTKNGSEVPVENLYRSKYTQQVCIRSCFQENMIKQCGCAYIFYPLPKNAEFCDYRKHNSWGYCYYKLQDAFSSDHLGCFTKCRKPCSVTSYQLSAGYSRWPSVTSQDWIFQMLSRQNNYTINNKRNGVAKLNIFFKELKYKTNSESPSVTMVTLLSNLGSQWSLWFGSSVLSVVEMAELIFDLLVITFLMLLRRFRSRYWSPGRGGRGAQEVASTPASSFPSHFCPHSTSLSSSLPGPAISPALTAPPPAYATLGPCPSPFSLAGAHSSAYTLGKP
T2 sequence (Q95165 1-641): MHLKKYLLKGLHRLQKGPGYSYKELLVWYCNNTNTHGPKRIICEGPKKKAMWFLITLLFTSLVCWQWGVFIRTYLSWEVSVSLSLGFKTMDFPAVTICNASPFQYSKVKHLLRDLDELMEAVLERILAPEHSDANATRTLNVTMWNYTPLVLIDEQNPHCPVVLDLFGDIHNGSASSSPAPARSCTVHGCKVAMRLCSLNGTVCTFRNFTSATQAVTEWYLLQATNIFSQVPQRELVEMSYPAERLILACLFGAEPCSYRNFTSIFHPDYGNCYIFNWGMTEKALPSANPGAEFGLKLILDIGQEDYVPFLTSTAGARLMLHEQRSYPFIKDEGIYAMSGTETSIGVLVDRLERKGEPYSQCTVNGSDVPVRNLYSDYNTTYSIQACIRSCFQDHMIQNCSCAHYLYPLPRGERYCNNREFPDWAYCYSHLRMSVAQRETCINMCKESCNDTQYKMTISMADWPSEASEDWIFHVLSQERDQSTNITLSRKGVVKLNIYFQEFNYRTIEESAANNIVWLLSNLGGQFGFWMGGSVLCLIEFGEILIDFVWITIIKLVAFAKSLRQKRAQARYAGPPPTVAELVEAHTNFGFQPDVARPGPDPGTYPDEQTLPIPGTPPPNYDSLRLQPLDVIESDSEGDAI
T2 sequence (A0A8I3MKE6 1-646): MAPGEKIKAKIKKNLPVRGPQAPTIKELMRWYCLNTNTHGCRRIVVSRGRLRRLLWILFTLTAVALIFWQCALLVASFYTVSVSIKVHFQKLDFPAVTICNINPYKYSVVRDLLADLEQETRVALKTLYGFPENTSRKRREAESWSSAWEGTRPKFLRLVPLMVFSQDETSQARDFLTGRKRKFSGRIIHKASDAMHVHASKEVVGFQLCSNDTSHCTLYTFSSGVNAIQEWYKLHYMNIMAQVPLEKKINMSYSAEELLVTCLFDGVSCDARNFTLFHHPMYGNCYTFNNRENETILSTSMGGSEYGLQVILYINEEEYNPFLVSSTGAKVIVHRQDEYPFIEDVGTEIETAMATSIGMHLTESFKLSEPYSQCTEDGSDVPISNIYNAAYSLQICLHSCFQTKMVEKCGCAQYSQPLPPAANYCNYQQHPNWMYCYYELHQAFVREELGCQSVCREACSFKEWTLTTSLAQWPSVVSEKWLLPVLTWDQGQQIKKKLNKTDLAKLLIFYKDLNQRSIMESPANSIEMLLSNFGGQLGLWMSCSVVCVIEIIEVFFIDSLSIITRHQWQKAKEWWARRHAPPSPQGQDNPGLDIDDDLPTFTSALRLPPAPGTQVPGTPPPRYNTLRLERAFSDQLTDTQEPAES
Protocol: To assess epithelial sodium channel blocker potency the compounds of the present invention involves the determination of lumenal drug inhibition of airway epithelial sodium currents measured under short circuit current (ISC) using airway epithelial monolayers mounted in Ussing chambers. Cells obtained from freshly excised human, or dog airways are seeded onto porous 0.4 micrometer Transwell® Permeable Supports (Corning Inc. Acton, Mass.), cultured at air-liquid interface (ALI) conditions in hormonally defined media, and assayed for sodium transport activity (ISC) while bathed in Krebs Bicarbonate Ringer (KBR) in Ussing chambers. All test drug additions are to the lumenal bath with approximately half-log dose additions (from 1×10^−11 M to 6×10^−5 M), and the cumulative change in ISC (decreases) recorded. All drugs are prepared in dimethyl sulfoxide as stock solutions at a concentration of approximately 1×10^−2 and stored at −20° C. Six preparations are typically run in parallel; one preparation per run incorporates 552-02 as a positive control. Before the start of the concentration-effect relationship propranolol, a non-selective […], was applied to the lumenal bath (10 μM) to inhibit the beta agonist component of the designer multiple ligand (DML). All data from the voltage clamps are collected via a computer face and analyzed off-line.
Concentration-effect relationships for all compounds are considered and analyzed Using GraphPad Prism version 3.00 for Windows, GraphPad Software, San Diego Calif. USA. IC50 values, […], are calculated and compared to the 552-02 potency as a positive control.

T1 sequence (P54833 whole entry): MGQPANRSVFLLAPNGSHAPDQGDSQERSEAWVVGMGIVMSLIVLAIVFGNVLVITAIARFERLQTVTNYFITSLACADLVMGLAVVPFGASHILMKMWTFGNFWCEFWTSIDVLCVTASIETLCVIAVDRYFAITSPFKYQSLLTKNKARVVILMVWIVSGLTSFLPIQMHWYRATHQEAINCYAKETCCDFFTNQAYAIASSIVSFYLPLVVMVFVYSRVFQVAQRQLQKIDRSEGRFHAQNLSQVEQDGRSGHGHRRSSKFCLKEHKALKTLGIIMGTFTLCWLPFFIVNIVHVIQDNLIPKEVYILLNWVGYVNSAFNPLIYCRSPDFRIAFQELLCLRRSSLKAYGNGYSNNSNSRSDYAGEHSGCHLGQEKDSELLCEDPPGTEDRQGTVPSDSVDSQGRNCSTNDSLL

CS(=O)(=O)Nc1cc([C@@H](O)CNCCCCc2ccc(CCCCNC(=N)NC(=O)c3nc(Cl)c(N)nc3N)cc2)ccc1O [Compound 40, N-(5-{2-[4-(4-{4-[N′-(3,5-diamino-6-chloropyrazine-2-carbonyl)-guanidino]butyl}phenyl)butylamino]-1-(R)-hydroxyethyl}-2-hydroxyphenyl)-methanesulfonamide]
EC50 (beta-adrenergic receptor): 1580 nM | ENaC blocking potency relative to Amiloride ([1]; fold potency versus amiloride): 91 × Amiloride | IC50 ([1]; lumenal addition, propranolol 10 μM applied first): 9.2 nM | melting point: 108 to 110 °C
